Measured values published in ChEMBL document CHEMBL4765241, “Identification and Preclinical Pharmacology of ((1 R,3 S)-1-Amino-3-(( S)-6-(2-methoxyphenethyl)-5,6,7,8-tetrahydronaphthalen-2-yl)cyclopentyl)methanol (BMS-986166): A Differentiated Sphingosine-1-phosphate Receptor 1 (S1P) Modulator Advanced into Clinical Trials” (J Med Chem, 2019).
Values belong to the compound of their own block, whether it stands above or below them.

Assays:
[1] = Drug metabolism in pH 7.4 Tris-HCl buffer assessed as amount of phosphate ester metabolite formation at […] in presence of sphingosine kinase 1,2 and Mg-ATP incubated for 30 mins by TLC based analysis relative to fingolimod
[2] = Drug metabolism in Balb/c mouse blood assessed as concentration of parent compound at 1 mg/kg, po measured at 24 hrs by LC-MS/MS analysis; type: ADME, organism-based; details: read-out: Ct
Mus musculus [3] = assay: Reduction in circulating lymphocytes in Balb/c mouse blood at 30 mg/kg, po measured at 4 hrs by hematology analyzer based analysis; type: functional; parameters: scale not given: the % may be the effect or the level left; details: 30 mg/kg, 4 h
[4] = Drug metabolism in Balb/c mouse blood assessed as concentration of parent compound at 1 mg/kg, po measured at 4 hrs by LC-MS/MS analysis; type: ADME, organism-based; details: in vivo, 1 mg/kg, 4 h, 1 mg/kg, 4 h, read-out: Ct
[5] = Drug metabolism in Balb/c mouse blood assessed as phosphate ester metabolite formation at 30 mg/kg, po measured at 4 hrs by LC-MS/MS analysis; type: ADME, organism-based; details: in vivo
[6] = Drug metabolism in Balb/c mouse blood assessed as concentration of phosphate ester metabolite formation at 1 mg/kg, po measured at 24 hrs by LC-MS/MS analysis; type: ADME, organism-based; details: in vivo, BLD = below limit of detection
Mus musculus [7] = assay: Reduction in circulating lymphocytes in Balb/c mouse blood at 1 mg/kg, po measured at 24 hrs by hematology analyzer based analysis; type: functional; parameters: scale not given: the % may be the effect or the level left; details: 1 mg/kg, 24 h
[8] = Drug metabolism in Balb/c mouse blood assessed as concentration of parent compound at 30 mg/kg, po measured at 4 hrs by LC-MS/MS analysis; type: ADME, organism-based; details: read-out: Ct
[9] = Drug metabolism in Balb/c mouse blood assessed as concentration of phosphate ester metabolite formation at 1 mg/kg, po measured at 4 hrs by LC-MS/MS analysis; type: ADME, organism-based; details: in vivo, BLD = below limit of detection
[10] = Drug metabolism in Balb/c mouse blood assessed as concentration of phosphate ester metabolite formation at 30 mg/kg, po measured at 24 hrs by LC-MS/MS analysis; type: ADME, organism-based; details: in vivo
[11] = Ratio of drug metabolism in Balb/c mouse blood assessed as phosphate ester metabolite to parent drug at 30 mg/kg, po measured at 24 hrs by LC-MS/MS analysis; type: ADME, organism-based; details: in vivo
[12] = Drug metabolism in Balb/c mouse blood assessed as concentration of parent compound at 30 mg/kg, po measured at 24 hrs by LC-MS/MS analysis; type: ADME, organism-based; details: in vivo, 30 mg/kg, 24 h, 30 mg/kg, 24 h, read-out: Ct
Mus musculus [13] = assay: Reduction in circulating lymphocytes in Balb/c mouse blood at 1 mg/kg, po measured at 4 hrs by hematology analyzer based analysis; type: functional; parameters: scale not given: the % may be the effect or the level left
Mus musculus [14] = assay: Reduction in circulating lymphocytes in Balb/c mouse blood at 30 mg/kg, po measured at 24 hrs by hematology analyzer based analysis; type: functional; parameters: scale not given: the % may be the effect or the level left; details: 30 mg/kg, 24 h
[15] = Drug metabolism in Lewis rat blood assessed as concentration of parent compound at 2 mg/kg, po measured at 4 hrs by LC-MS/MS analysis; type: ADME, organism-based; details: read-out: Ct
[16] = Drug metabolism in Lewis rat blood assessed as concentration of parent compound at 2 mg/kg, po measured at 24 hrs by LC-MS/MS analysis; type: ADME, organism-based; details: read-out: Ct
Rattus norvegicus [17] = assay: Drug metabolism in Lewis rat blood assessed as concentration of phosphate ester metabolite formation at 2 mg/kg, po measured at 4 hrs by LC-MS/MS analysis; details: in vivo
Rattus norvegicus [18] = assay: Reduction in circulating lymphocytes in Lewis rat blood at 2 mg/kg, po measured at 4 hrs by hematology analyzer based analysis; type: functional; parameters: scale not given: the % may be the effect or the level left
[19] = Ratio of drug metabolism in Lewis rat blood assessed as phosphate ester metabolite to parent drug at 2 mg/kg, po measured at 24 hrs by LC-MS/MS analysis; type: ADME, organism-based; details: in vivo
Rattus norvegicus [20] = assay: Reduction in circulating lymphocytes in Lewis rat blood at 2 mg/kg, po measured at 24 hrs by hematology analyzer based analysis; type: functional; parameters: scale not given: the % may be the effect or the level left; details: 2 mg/kg, 24 h
[21] = Half-life in Lewis rat at 2 mg/kg, po measured over 72 hrs by LC-MS/MS analysis; type: ADME, organism-based; details: in vivo

SMILES: N[C@]1(CO)CC[C@H](c2ccc3c(c2)CCC(c2ccccc2)C3)C1 (stereo in doubt; 8a)
- concentration at 24 h ([2]; Balb/c, blood): 27 nM
- Activity (Mus musculus [3]): 67%
- concentration [4]: 44 nM
- Drug metabolism [5]: 43 nM
- Drug metabolism [6]: Bld
- Activity (Mus musculus [7]): <10%
- concentration at 4 h ([8]; Balb/c, blood): 1500 nM
- Drug metabolism [9]: Bld
- Drug metabolism [10]: 110 nM
- Ratio [11]: 0.14
- concentration [12]: 760 nM
- Activity (Mus musculus [13]): <10%
- Activity (Mus musculus [14]): 88%

SMILES: N[C@]1(CO)CC[C@H](c2ccc3c(c2)CCC(c2ccccc2)C3)C1 (stereo in doubt; 8b)
- concentration ([2]; in vivo, 1 mg/kg, 24 h, 1 mg/kg, 24 h): 16 nM
- Activity (Mus musculus [3]): 72%
- concentration [4]: 16 nM
- Drug metabolism [5]: 36 nM
- Activity (Mus musculus [7]): 36%
- concentration ([8]; in vivo, 30 mg/kg, 4 h, 30 mg/kg, 4 h): 750 nM
- Drug metabolism [10]: 49 nM
- Ratio [11]: 0.16
- concentration [12]: 300 nM
- Activity (Mus musculus [14]): 84%

SMILES: COc1cccc(CC2CCc3cc([C@H]4CC[C@](N)(CO)C4)ccc3C2)c1 (stereo in doubt; 12a)
- concentration at 4 h [15]: 50 nM
- concentration at 24 h [16]: 20 nM
- Drug metabolism (Rattus norvegicus [17]): 10 nM
- Activity (Rattus norvegicus [18]; 2 mg/kg, 4 h): 30%
- Ratio [19]: 1
- Activity (Rattus norvegicus [20]): 73%
- half-life [21]: 15 h

SMILES: COc1cccc(CC2CCc3cc([C@H]4CC[C@](N)(CO)C4)ccc3C2)c1 (stereo in doubt; 12b)
- Activity (Rattus norvegicus [18]; 2 mg/kg, 4 h): <10%
- Activity (Rattus norvegicus [20]): 45%

SMILES: COc1ccc(CC2CCc3cc([C@H]4CC[C@](N)(CO)C4)ccc3C2)cc1 (stereo in doubt; 13a)
- Activity (Rattus norvegicus [18]): <10%
- Activity (Rattus norvegicus [20]): 52%

SMILES: COc1ccc(CC2CCc3cc([C@H]4CC[C@](N)(CO)C4)ccc3C2)cc1 (stereo in doubt; 13b)
- concentration at 4 h [15]: 90 nM
- concentration at 24 h [16]: 60 nM
- Drug metabolism (Rattus norvegicus [17]): 50 nM
- Ratio [19]: 1.3
- Activity (Rattus norvegicus [20]): 73%
- half-life [21]: 64 h

The next lines start with the values.

- Drug metabolism [1]: 5%
SMILES: Cn1cncc1CCC1CCc2cc([C@H]3CC[C@](N)(CO)C3)ccc2C1 (stereo partly drawn)

- Drug metabolism [1]: 4%
SMILES: N[C@]1(CO)CC[C@H](c2ccc3c(c2)CC[C@@H](CCc2ccccn2)C3)C1

- Drug metabolism [1]: 3%
SMILES: N[C@]1(CO)CC[C@H](c2ccc3c(c2)CC[C@@H](CCc2cccnc2)C3)C1

- Drug metabolism [1]: 4%
SMILES: N[C@]1(CO)CC[C@H](c2ccc3c(c2)CC[C@@H](CCc2ncccn2)C3)C1

- Drug metabolism [1]: 1.8%
SMILES: N[C@]1(CO)CC[C@H](c2ccc3c(c2)CC[C@H](CCc2ccccn2)C3)C1

- Drug metabolism [1]: 24%
SMILES: N[C@]1(CO)CC[C@H](c2ccc3c(c2)CC[C@H](CCc2cccnc2)C3)C1

- Drug metabolism [1]: 6%
SMILES: N[C@]1(CO)CC[C@H](c2ccc3c(c2)CC[C@H](CCc2ncccn2)C3)C1

- Drug metabolism [1]: 0%
SMILES: N[C@]1(CO)CC[C@H](c2ccc3c(c2)CCC(CCc2ccncc2)C3)C1 (single isomer, unassigned)
